These results are taken from the NIST ThermoML archive (doi:10.1021/acs.jced.7b00185).

Numbers after ± are expanded uncertainties.

The conditions of the series: Liquid; for mass density: 298.15 K, 101.33 kPa, Vibrating tube method; for vapor or sublimation pressure: Ebulliometric method (Recirculating still).

In the case of `CCOC(=O)C(C)O` (racemic) [DL-ethyl lactate], the mass density turned out to be 1028.08 ± 0.1 kg/m3.
In the case of `COC(=O)OC` [dimethyl carbonate], the mass density is given as 1063.29 ± 0.08 kg/m3. In addition, for the setting “336.61 K”, the “vapor or sublimation pressure” value was found to be 40 ± 3.5 kPa. Besides, under “344.29 K”, the “vapor or sublimation pressure” value is on record as 53.33 ± 3.8 kPa. Moreover, the “vapor or sublimation pressure” value (350.5 K) is recorded as 66.66 ± 4.6 kPa. Further, the “vapor or sublimation pressure” value (355.83 K) was 79.99 ± 5.3 kPa. Besides, for the setting “360.49 K”, the “vapor or sublimation pressure” value was 93.32 ± 5.9 kPa. Besides, for the setting “363 K”, the “vapor or sublimation pressure” value is 101.3 ± 6.4 kPa.
Take `CO` [methanol]: the mass density is on record as 786.56 ± 0.12 kg/m3.
